Measurements from PubChem BioAssay (NCI).
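Interpolation was linear, between the two tested concentrations surrounding the appropriate level; five concentrations were tested over 48 hours in 96-well plates. The concentration for 50% growth inhibition is given as GI50. Definition used: TGI = concentration required for complete inhibition of growth.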 Where a SMILES comes first, the peptide text is derived from it. [ ]: non-standard residue; d: D form. The star is where a group is joined. ξ: configuration not given here. X6 = FC(F)(F)c1cc(NC(=S)*)cc(C(F)(F)F)c1; ξF = NC(Cc1ccccc1)C(=O)O

Key:
Test in all cases: inhibition of tumour cell growth, NCI panel, 48 h
U251 CNS = test system: U251 CNS
OVCAR-4 ovarian = test system: OVCAR-4 ovarian
UO-31 renal = test system: UO-31 renal
RXF 393 renal = test system: RXF 393 renal
HT29 colon = test system: HT29 colon
NCI-H460 lung = test system: NCI-H460 lung
SF-268 CNS = test system: SF-268 CNS
786-0 renal = test system: 786-0 renal
NCI-H226 lung = test system: NCI-H226 lung

Row | Structure (SMILES) | GI50 (U251 CNS) | TGI (U251 CNS) | GI50 (OVCAR-4 ovarian) | TGI (OVCAR-4 ovarian) | GI50 (UO-31 renal) | TGI (UO-31 renal) | GI50 (RXF 393 renal) | TGI (RXF 393 renal) | GI50 (HT29 colon) | TGI (HT29 colon) | GI50 (NCI-H460 lung) | TGI (NCI-H460 lung) | GI50 (SF-268 CNS) | TGI (SF-268 CNS) | GI50 (786-0 renal) | TGI (786-0 renal) | GI50 (NCI-H226 lung) | TGI (NCI-H226 lung)
1 | NC(=O)c1sc(-n2cnc3ccccc32)cc1OCc1ccccc1Br | 4.44 µM | > 25 µM | > 25 µM | > 25 µM | 15.4 µM | > 25 µM | 1.73 µM | > 25 µM | 1.06 µM | > 25 µM | 2.36 µM | > 25 µM | 4.98 µM | > 25 µM | 11.1 µM | > 25 µM | 11.9 µM | > 25 µM
2 | O=C(O)CSc1ccc([N+](=O)[O-])cc1[N+](=O)[O-] |  | > 100 µM |  | > 100 µM |  | > 100 µM |  | > 100 µM |  | > 100 µM |  | > 100 µM |  | > 100 µM |  | > 100 µM |  | 
3 | C#Cc1ccc(-n2c(/C=C/c3ccc(C(F)(F)F)cc3)nc3ncccc3c2=O)cc1 | 1.67 µM | 3.13 µM | 1.58 µM | 3.29 µM | 1.43 µM | 3.67 µM | 1.79 µM | 3.79 µM | 2.03 µM | 3.95 µM | 1.98 µM | 4.13 µM | 2.27 µM | 5.95 µM | 2.06 µM | 3.7 µM | 1.99 µM | 4.09 µM
4 | O=C(Nc1ccccc1OC(F)(F)F)Nc1n[nH]c2ccccc12 | 31.1 µM | > 100 µM | 37.7 µM | > 100 µM | 17.4 µM | > 100 µM | 24.4 µM | > 100 µM | 26.1 µM | > 100 µM | 15 µM | > 100 µM | 16.2 µM | > 100 µM | 38.7 µM | > 100 µM | 26.1 µM | > 100 µM
5 | COc1cc(Cc2cnc(/N=C3\C(=O)N(CN4CCN(c5c(F)cc6c(=O)c(C(=O)O)cn(C7CC7)c6c5OC)CC4C)c4ccc(F)cc43)nc2N)cc(OC)c1OC (centres undefined) | 8.79 µM | 21 µM |  |  | 31.7 µM | > 100 µM | 16 µM | 49.1 µM | 14.9 µM | > 100 µM | 18.9 µM | > 100 µM | 18.2 µM | 57.7 µM | 11.1 µM | 23.1 µM | 13.8 µM | 43.3 µM
6 | Clc1ccc2c(NCCCCNc3nc(N4CCCCC4)nc4ccccc34)ccnc2c1 | 2.02 µM | 4.56 µM | 1.59 µM | 5.24 µM | 1.47 µM | 3.05 µM | 1.66 µM | 3.37 µM | 1.63 µM | 4.86 µM | 2.56 µM | 9.03 µM | 1.84 µM | 7.56 µM | 1.44 µM | 2.76 µM | 3.85 µM | 16.5 µM
7 | O=C1C=C(Cl)C(=O)C(c2ccc(Cl)cc2)=C1 |  | 30 µM |  | 51.6 µM |  | 28.5 µM |  | 34 µM |  | 62.8 µM |  | > 100 µM |  | 42.3 µM |  | 38.1 µM |  | 85.5 µM
8 | NC(=O)c1cccc2cn(-c3ccc([C@@H]4CCCNC4)cc3)nc12 | 12.6 µM | 29 µM | 16.6 µM | 41.5 µM | 11.3 µM | 25.2 µM | 13.5 µM | 27.1 µM | 12.9 µM | 32 µM | 4 µM | 18.7 µM | 9.13 µM | 28.5 µM | 16.2 µM | 33 µM | 14.4 µM | 30.1 µM
9 | CC12CCC(O)CC1CCC1C2CCC2(C)C(C3=CC(=O)OC3)CCC12O (centres undefined) |  | 27.8 µM |  | 5.39 µM |  | 8.23 µM |  | 3.55 µM |  | 13.6 µM |  | 3.99 µM |  | 7.07 µM |  | 4.78 µM |  | 27.7 µM
10 | Nc1ccccc1SC(C[N+](=O)[O-])c1ccc2c(c1)OCO2 (centres undefined) |  | 8.53 µM |  | 23.8 µM |  | 3.32 µM |  | 3.33 µM |  | 3.81 µM |  | 4.75 µM |  | 20.7 µM |  | 3.15 µM |  | 32.4 µM
11 | COc1cc(-c2nn(-c3ccc(NC(=O)c4ccc(Cl)c(C(F)(F)F)c4)cc3)cc2-c2ccncc2)ccc1Cl | 2.08 µM | 56.7 µM | 5.05 µM | > 100 µM | 1.65 µM | 5.46 µM | 0.461 µM | 1.61 µM | 1.8 µM | 4.25 µM | 3.43 µM | > 100 µM | 4.03 µM | > 100 µM | 1.2 µM | 2.86 µM | 5.31 µM | > 100 µM
12 | COC(=O)[C@@H](NC(=O)CNC(=O)[C@H]1CCCN1C(=O)C(Cc1ccccc1)NC(=S)Nc1cc(C(F)(F)F)cc(C(F)(F)F)c1)C(C)C (some centres undefined) (X6-[ξF][dP]GV-OMe) |  |  | 3.17 µM | 17.6 µM | 2.91 µM | 13.9 µM | 1.95 µM | 3.5 µM | 2.44 µM | 5.75 µM | 3.39 µM | 12 µM | 2.98 µM | 10.7 µM | 2.12 µM | 4.34 µM | 1.65 µM | 3.42 µM
13 | Cn1c2ccccc2c2c(Nc3ccccc3)c3ccccc3nc21 | 22.7 µM | 71.8 µM | 21.1 µM | > 100 µM | 51.8 µM | > 100 µM |  |  | 5.66 µM | 60.7 µM | 17.5 µM | 41.1 µM | 19.2 µM | 53 µM | 17.3 µM | 41.8 µM | 16.4 µM | 46.4 µM
14 | C=C(CN1CCN(c2ccc(Cl)cc2F)CC1)c1ccc(C(=O)Nc2ccccc2N)cc1 | 1.8 µM | 21.5 µM |  | > 66.6 µM | 1.1 µM | > 25.1 µM | 0.867 µM | 12.4 µM | 2.96 µM | > 100 µM | 3.23 µM | > 100 µM | 2.61 µM | > 100 µM | 2.28 µM | > 100 µM | 3.29 µM | > 100 µM
15 | COc1ccc2c(C3=C(c4cn(C)c5ccccc45)C(=O)NC3=O)cn(C)c2c1 | 0.102 µM | > 25 µM | 0.258 µM | > 25 µM | 3.69 µM | > 25 µM |  |  | 0.098 µM | > 14 µM | 0.0982 µM | > 25 µM | 0.292 µM | > 25 µM | 0.255 µM | > 25 µM | 2.63 µM | > 25 µM
